In PMC3723855, “R31C GNRH1 Mutation and Congenital Hypogonadotropic Hypogonadism” (PLoS ONE, 2013):
Entries after “also recorded” stand apart in the source; their conditions may differ.

Columns and labels:
human GnRH-R [1] = biological target: T1, human GnRH-R (Homo sapiens, UniProt P30968); experiment: Competition radioligand binding, 125I-[His5, D-Tyr6]-GnRH, transfected COS-7 cells
T1 sequence (P30968 1-328): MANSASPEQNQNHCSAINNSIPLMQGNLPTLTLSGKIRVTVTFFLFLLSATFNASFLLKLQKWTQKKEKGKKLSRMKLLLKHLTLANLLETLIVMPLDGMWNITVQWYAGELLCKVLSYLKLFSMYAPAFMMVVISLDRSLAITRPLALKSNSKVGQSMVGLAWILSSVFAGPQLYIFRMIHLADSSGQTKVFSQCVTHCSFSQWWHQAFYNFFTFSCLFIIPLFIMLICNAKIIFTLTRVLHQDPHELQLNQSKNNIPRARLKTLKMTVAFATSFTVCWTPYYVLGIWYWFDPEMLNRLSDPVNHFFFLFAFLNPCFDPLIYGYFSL
Procedure: Figure 2 Binding of WT and R31C GnRH to the GnRH receptor (GnRH-R). […] Data are the means of two experiments performed in triplicate.
The high affinity GnRH analog, [His^5, D-Tyr^6]-GnRH was radio-iodinated as previously described and purified using Sephadex chromatography. COS-7 cells were transiently transfected with a human GnRH-R DNA construct containing the human GnRH-RII carboxy-terminal to enhance expression using 6 µg of DNA and 30 µl FuGene HD (Promega Corporation, Madison, WI) per 10 cm dish and seeded into 12-well plates. […] Cells were washed with phosphate-buffered saline (2×1 ml) and lysed with NaOH (1 ml, 0.1 M). Cell-bound radioactivity was counted in a gamma counter and IC-50 values were calculated using Graphpad Prism (GraphPad Software Inc, San Diego).

human GnRH-R [2] = biological target: T1, human GnRH-R; experiment: Inositol phosphate (IP) accumulation in COS-7 cells transfected with human GnRH-R; format: cell-based; design: host or cells: COS-7
Procedure: Figure 6 IP accumulation. (A) COS-7 cells were transiently transfected with human GnRH-R expression vector and washed before the addition of myo-[2-^3H]Inositol. […] This experience was conducted three times each in triplicate. (B) Representation of individual values of EC-50 (calculated with Arcsin “P” root transformation) from n = 3 dose-response experiments.
COS-7 cells were transiently transfected by electroporation with human GnRH-R DNA (10 µg/15 cm dish), seeded into 12-well plates and radiolabelled by overnight incubation with myo-[3H]Inositol (0.5 µCi/well, American Radiolabeled Chemicals, St Louis, Mo). […] Incubations were stopped by removal of the medium and cells were lysed by addition of formic acid (1 ml, 10 mM). IP were extracted from cell lysates using Dowex 1 X8-200 chromatography and counted using a liquid scintillation counter (Pack ard). EC-50 and Emax values were calculated using Graphpad Prism (GraphPad Software Inc).

LbetaT2 cells = experiment: Intracellular calcium mobilization (Fura2) in LbetaT2 cells; format: cell-based, murine; settings: for calcium mobilisation: 10 nM, LbetaT2 cells
Procedure: Figure 5 Effect of treatments on intracellular calcium mobilization. Cells were loaded with Fura 2-AM. At the time of the experiment 100 µM EGTA was added 30 sec before addition of 300 µM of CaCl2 (Ca^2+) to the medium as indicated, and cells were then stimulated with 10 nM of wild type (WT), mutant (R31C) or equimolar combination (10 nM WT +10 nM R31C) or vehicle for 3 min. In the upper panel, representative curves of single cell recording. Each experiment mean was analysed using One-way ANOVA followed by Tukey's Multiple comparison test. In the lower panels, histograms show the means ± SEM (n = 4) of the response to ligands as calcium peak and as area under the curve (AUC). […] Representative of at least three independent experiments, *p<0.05.
LbetaT2 cells were kept in serum free medium overnight and then loaded with 2 µM Fura2-AM for 45 min at 37°C. The experiment was conducted in HEPES buffer (in mM; 116 NaCl, 5.6 KCl, 1.2 MgCl2, 5 NaHCO3, 1 NaH2PO4, 20 HEPES ph 7.4) in presence of extracellular Ca^2+ (EGTA 100 µM + CaCl2 300 µM). Single images of fluorescent emission at 510 nm under excitation at 340 and 380 nm were taken every 5 Sec. Changes in [Ca^2+]i in response to GnRHs were monitored using the Fura2 340/380 fluorescence ratio. Basal ratio was arbitrarily considered as 1. Ca^2+ responses over basal level were given either as maximal rise of [Ca^2+]i or as area under the curve (for 2 min after agonist addition).

GNRHR = experiment: SRE-coupled luciferase after pulsatile exposure (four 90 min-spaced pulses), HEK293T cells; format: cell-based, human; settings: 5 minutes each, 10 nM WT, 10 nM R31C or 10+10 nM, harvested five hours after last pulse, three experiments, n = 8 replicates
Procedure: Supplementary file pone.0069616.s002.ppt: Figure S2 Luciferase activity after pulsatile exposure. HEK293T cells were transiently transfected with GNRHR and SRE-coupled luciferase reporter gene, and then exposed to four 90 min-spaced pulses of 10 nM WT, 10 nM […] and 10+10 nM WT+[…]. After 5 minutes exposure to each ligand, cells were washed, and a subsequent pulse was given 90 minutes after. Five hours after the last pulse, cells were harvested for luciferase assay. Luciferase activity arbitrary units obtained by luminometry (a.l.u.) are shown as ratio on beta-galactosidase activity by optical density (used as transfection efficiency internal control). This experience was conducted three times (n = 8 replicates for each experiment). (PPT) Click here for additional data file.

[3] = R31C 10^−10 M to 10^−6 M in combination with WT GnRH at 10^−9 M
[4] = 10 nM R31C, 3 min, EGTA 100 µM + CaCl2 300 µM, n = 4, p<0.05

| SMILES | IC50 (human GnRH-R [1]; COS-7 transfected with human GnRH-R construct, 125I-[His5, D-Tyr6]-GnRH, 4 h, 4°C, two experiments performed in duplicate) [nM] | impact of added R31C GnRH on receptor binding with WT GnRH (human GnRH-R [1]; [3]) | activity in receptor binding (human GnRH-R [1]; R31C GnRH) | affinity for GnRH-R lower than that of WT GnRH (human GnRH-R [1]; R31C GnRH versus WT GnRH, COS-7 cells) | maximal IP / agonism (human GnRH-R [2]; COS-7, R31C compared with WT) | EC50 (human GnRH-R [2]; COS-7, human GnRH-R, 1 hour, n = 3 dose-response experiments each in triplicate, Arcsin "P" root transformation, spread not defined, read-out: EC-50, IP accumulation (Fig. 6B)) [nM] | impact of added R31C GnRH on IP generation with WT GnRH (human GnRH-R [2]; [3]) | IP activity / potency (human GnRH-R [2]; R31C GnRH versus WT) | less potent than WT GnRH, IP accumulation (human GnRH-R [2]; R31C GnRH versus WT GnRH, p<0.01) [fold] | calcium area under the curve (AUC) versus WT (LbetaT2 cells; [4]) | calcium peak versus WT (LbetaT2 cells; [4]) | calcium mobilisation (LbetaT2 cells) | calcium mobilisation (LbetaT2 cells; listed as R31C peptide) | impact of added R31C GnRH on Ca2+ signaling with WT GnRH (LbetaT2 cells; [3]) | luciferase activity after pulsatile administration (GNRHR) |
| --- | --- | --- | --- | --- | --- | --- | --- | --- | --- | --- | --- | --- | --- | --- | --- |
| CC(C)C[C@H](NC(=O)CNC(=O)[C@H](Cc1ccc(O)cc1)NC(=O)[C@H](CO)NC(=O)[C@H](Cc1c[nH]c2ccccc12)NC(=O)[C@H](Cc1c[nH]cn1)NC(=O)[C@@H]1CCC(=O)N1)C(=O)N[C@@H](CS)C(=O)N1CCC[C@H]1C(=O)NCC(N)=O [R31C GnRH] | 850 | failed to have any impact | very low activity | more than 100 fold | full agonist; also recorded: maximal IP generated by both ligands was the same; also recorded: able to elicit the same maximal stimulation | 199 ± 75.9 | failed to have any impact | very low activity | > 100 | significantly reduced compared to WT; also recorded: significantly lower than WT | significantly reduced compared to WT; also recorded: significantly lower than WT | very low activity | weaker responses | failed to have any impact |  |
| CC(C)C[C@H](NC(=O)CNC(=O)[C@H](Cc1ccc(O)cc1)NC(=O)[C@H](CO)NC(=O)[C@H](Cc1c[nH]c2ccccc12)NC(=O)[C@H](Cc1c[nH]cn1)NC(=O)[C@@H]1CCC(=O)N1)C(=O)N[C@@H](CCCNC(=N)N)C(=O)N1CCC[C@H]1C(=O)NCC(N)=O [WT GnRH, reference compound] |  |  |  |  |  |  |  |  |  |  |  | rapid and transient calcium mobilisation |  |  | more potent than R31C GnRH |
